Laboratory results taken from paper PMC7226045, “Ensartinib (X-396) Effectively Modulates Pharmacokinetic Resistance Mediated by ABCB1 and ABCG2 Drug Efflux Transporters and CYP3A4 Biotransformation Enzyme” (Cancers, 2020).
pIC50: −log10 of the molar value.

How the values were obtained:
ABCB1 = biological target: T1, ABCB1 (Homo sapiens, UniProt P08183); assay: hoechst 33342 accumulation assay in MDCKII-ABCB1 cells; format: cell-based; settings: read-out: IC50, inhibition of ABCB1 (hoechst 33342 accumulation)
T1 construct: expressed in transfected cells; host or cells: MDCKII-ABCB1 (from Dr. Alfred Schinkel, The Netherlands Cancer Institute)
T1 sequence (P08183 whole entry): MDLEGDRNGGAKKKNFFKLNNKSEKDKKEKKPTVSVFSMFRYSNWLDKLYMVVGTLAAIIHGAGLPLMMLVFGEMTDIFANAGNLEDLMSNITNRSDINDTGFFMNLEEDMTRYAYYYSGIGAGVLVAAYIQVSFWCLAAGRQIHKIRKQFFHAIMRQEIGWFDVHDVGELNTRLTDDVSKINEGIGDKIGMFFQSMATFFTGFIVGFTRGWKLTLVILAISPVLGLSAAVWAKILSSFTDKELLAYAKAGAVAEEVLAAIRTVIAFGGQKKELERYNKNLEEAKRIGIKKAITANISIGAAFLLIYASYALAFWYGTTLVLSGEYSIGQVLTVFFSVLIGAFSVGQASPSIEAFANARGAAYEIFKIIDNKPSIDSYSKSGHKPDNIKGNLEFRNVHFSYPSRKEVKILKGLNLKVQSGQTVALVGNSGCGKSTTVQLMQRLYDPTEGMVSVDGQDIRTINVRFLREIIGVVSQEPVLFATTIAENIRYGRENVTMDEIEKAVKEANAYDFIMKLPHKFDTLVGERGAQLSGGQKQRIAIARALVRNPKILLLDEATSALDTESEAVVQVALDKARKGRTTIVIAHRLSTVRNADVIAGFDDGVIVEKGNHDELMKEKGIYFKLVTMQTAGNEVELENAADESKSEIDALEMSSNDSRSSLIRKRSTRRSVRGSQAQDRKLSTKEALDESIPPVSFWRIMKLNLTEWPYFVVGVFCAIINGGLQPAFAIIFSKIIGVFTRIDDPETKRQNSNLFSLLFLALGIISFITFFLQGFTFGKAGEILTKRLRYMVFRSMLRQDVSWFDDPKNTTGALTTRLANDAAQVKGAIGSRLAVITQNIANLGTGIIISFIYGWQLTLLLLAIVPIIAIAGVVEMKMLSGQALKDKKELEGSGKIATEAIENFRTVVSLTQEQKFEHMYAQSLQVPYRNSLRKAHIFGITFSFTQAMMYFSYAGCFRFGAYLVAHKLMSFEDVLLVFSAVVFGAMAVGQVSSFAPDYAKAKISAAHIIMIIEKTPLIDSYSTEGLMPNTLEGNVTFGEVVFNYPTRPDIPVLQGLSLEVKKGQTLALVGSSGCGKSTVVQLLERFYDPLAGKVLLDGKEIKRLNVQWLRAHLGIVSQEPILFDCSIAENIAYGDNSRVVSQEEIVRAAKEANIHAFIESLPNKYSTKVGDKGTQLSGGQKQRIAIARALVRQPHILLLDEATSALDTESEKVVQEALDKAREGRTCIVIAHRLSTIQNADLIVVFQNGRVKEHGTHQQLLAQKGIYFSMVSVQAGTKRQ
Experimental: (§1) Cellular accumulation assay with hoechst 33342 and calcein AM was performed as described previously. Briefly, MDCKII-par, MDCKII-ABCB1, MDCKII-ABCG2, and MDCKII-ABCC1 cells were seeded at densities of 5.0 × 10^4, 5.0 × 10^4, 5.5 × 10^4, and 6.0 × 10^4 cells/well, respectively, on a transparent 96-well plate and grown to full confluence for 24 h under standard conditions. The cells were then washed twice with 1 × PBS, after which was added either a dilution of ensartinib in Opti-MEM (1, 5, 10, 25, or 50 µM) or a specific inhibitor to act as a positive control (1 µM LY335979, 1 µM Ko143, or 25 µM MK-571 for ABCB1, ABCG2, or ABCC1, respectively). Cells were pre-incubated for 10 min, then 8 µM hoechst 33342 (a model substrate for ABCB1 and ABCG2) or 2 µM calcein AM (ABCC1 substrate) diluted in Opti-MEM was quickly added to all wells other than those containing blank samples. The intracellular levels of the substrates were then determined at 1 min intervals for 30 min using a microplate reader (Infinite M200 Pro, Tecan, Männedorf, Switzerland). Fluorescence was monitored in bottom mode using excitation/emission wavelengths of 350/465 and 485/535 nm for hoechst 33342 and calcein AM, respectively.

MDCKII-par cells = assay: substrate accumulation in control MDCKII-par cells; format: cell-based, canine; settings: hoechst 33342, calcein AM, daunorubicin, mitoxantrone
Experimental: as §1, with “Cells were pre-incubated for 10 min, then 8 µM hoechst 33342 (a model substrate for ABCB1 and ABCG2) or 2 µM calcein AM (ABCC1 substrate) diluted in Opti-MEM was quickly added to all wells other than those containing blank samples.” left out
The flow-cytometric inhibitory assay with daunorubicin and mitoxantrone was performed with minor modifications as described previously. […] Samples were then transferred into test-tubes and kept on ice until their fluorescence could be measured using a flow cytometer (BD FACSCanto II, Allschwil, Switzerland). […]

CYP2C19 = biological target: T2, CYP2C19 (Homo sapiens, UniProt P33261); assay: Vivid CYP screening kit, recombinant CYP2C19; format: biochemical; settings: recombinant enzyme, 15 min incubation, absolute IC50; read-out: CYP2C19 inhibition IC50
T2 construct: purchased Thermo Fisher Scientific; host or cells: insect microsomal fractions
T2 sequence (P33261 whole entry): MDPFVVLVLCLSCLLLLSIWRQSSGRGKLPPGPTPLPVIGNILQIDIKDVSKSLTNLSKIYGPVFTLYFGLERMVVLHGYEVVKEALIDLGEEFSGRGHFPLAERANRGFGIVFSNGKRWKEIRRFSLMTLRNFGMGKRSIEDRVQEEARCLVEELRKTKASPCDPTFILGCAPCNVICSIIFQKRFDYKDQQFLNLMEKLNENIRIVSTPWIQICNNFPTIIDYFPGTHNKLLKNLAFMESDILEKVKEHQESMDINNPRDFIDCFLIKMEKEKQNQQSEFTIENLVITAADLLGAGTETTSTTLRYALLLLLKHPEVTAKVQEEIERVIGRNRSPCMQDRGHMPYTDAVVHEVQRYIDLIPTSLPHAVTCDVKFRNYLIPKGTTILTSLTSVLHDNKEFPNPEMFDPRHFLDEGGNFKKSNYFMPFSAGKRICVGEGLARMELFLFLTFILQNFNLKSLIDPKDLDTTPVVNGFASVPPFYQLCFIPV
Experimental: (§2) CYP inhibitory assay was performed as described previously. Experiments were performed with commercial Vivid CYP screening kits containing insect microsomal fractions enriched with a specific human CYP isoform, human CYP reductase, and in some cases, human cytochrome b5. The potential inhibitory activity of ensartinib toward CYP1A2, CYP2B6, CYP2C8, CYP2C9, CYP2C19, CYP2D6, CYP3A4, and CYP3A5 (i.e., all CYP isoforms that drug regulatory authorities recommend for testing of inhibition by new molecular entities) was then examined. Experiments were performed using a kinetic mode in black 96-well plates according to the manufacturer´s instructions. Briefly, 5-point serial dilutions of ensartinib or the model inhibitor recommended by the manufacturer in buffer were transferred into the wells, then a master mix consisting of a CYP isoenzyme with an NADPH regeneration system in buffer was added. After a 10 min pre-incubation, the reaction was initiated by adding a mixture of NADP^+ and the appropriate Vivid substrate, after which fluorescence was measured at 1 min intervals for 60 min using an Infinite M200 Pro microplate reader (Tecan, Männedorf, Switzerland). The enzyme concentration and incubation interval used for data evaluation (15 min) placed the systems within the linear regions of the appropriate reaction velocity curves. […]

CYP2B6 = biological target: T3, CYP2B6 (Homo sapiens, UniProt P20813); assay: Vivid CYP screening kit, recombinant CYP2B6; format: biochemical; settings: recombinant enzyme
T3 construct: purchased Thermo Fisher Scientific; host or cells: insect microsomal fractions
T3 sequence (P20813 whole entry): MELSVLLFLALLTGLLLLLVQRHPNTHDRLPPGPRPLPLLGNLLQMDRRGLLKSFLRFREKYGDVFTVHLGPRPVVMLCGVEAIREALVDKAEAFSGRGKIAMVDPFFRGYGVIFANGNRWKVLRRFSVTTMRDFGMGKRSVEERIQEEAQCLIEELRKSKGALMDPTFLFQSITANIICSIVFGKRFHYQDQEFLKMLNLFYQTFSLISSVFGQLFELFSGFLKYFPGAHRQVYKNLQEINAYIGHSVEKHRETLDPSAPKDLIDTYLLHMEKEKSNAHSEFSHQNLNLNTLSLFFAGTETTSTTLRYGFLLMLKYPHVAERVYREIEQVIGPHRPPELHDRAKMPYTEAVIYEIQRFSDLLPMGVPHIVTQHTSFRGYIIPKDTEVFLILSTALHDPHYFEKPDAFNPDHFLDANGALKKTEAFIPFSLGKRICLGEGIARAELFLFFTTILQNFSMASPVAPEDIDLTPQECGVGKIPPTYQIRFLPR
Experimental: as §2

[1] = XTT proliferation / drug combination assay, HL60-ABCG2; format: cell-based, human; settings: human, HL60-ABCG2 cells, 48 h, XTT, read-out: IC50, sensitivity to ensartinib
Experimental: (§3) The MTT method is not readily adapted for use with suspension cell cultures, therefore the XTT assay was used to assess the proliferation of HL60 cells. Briefly, HL60-par, HL60-ABCB1, HL60-ABCG2, and HL60-ABCC1 cells were seeded at 2 × 10^4 cells/well in 96-well culture plates. Immediately after seeding, dilutions of the tested drugs or drug combinations were added to the cells. The plates were then incubated under standard conditions (37 °C, 5% CO2) for 48 h, after which XTT solution in PBS (1 mg/mL) and phenazine methosulfate (7.50 µg/mL) were added to the cells and the plates were incubated for another 5 h. Finally, the cells’ absorbance was measured at 450 nm using a microplate reader (Infinite M200, Tecan, Salzburg, Austria). This method was used to assess the effect of ABC transporters on sensitivity to ensartinib and in drug combination assays.
(§4) Experiments focusing on the modulation of ABC transporter-mediated resistance were performed as described previously. The parent MDCKII and HL60 cells and their ABCB1-, ABCG2-, and ABCC1-overexpressing counterparts were seeded at the densities specified above onto 96-well culture plates and cultured for 24 h. The medium was subsequently replaced with serial dilutions of ensartinib alone or with various concentrations of a model MDR-susceptible cytostatic agent (daunorubicin or mitoxantrone) with or without 10 µM ensartinib. After 48 h incubation, the cells’ viability was determined as described above. In addition to performing IC50-shift analyses, the viability measurements were converted to FA (fraction of cells affected) values and the effects of drug combinations were quantified using the Chou-Talalay combination index (CI) method as implemented in CompuSyn 3.0.1 (ComboSyn Inc., Paramus, NJ, USA). The effects of concomitantly administered drugs were classified as synergistic (CI < 0.9), additive (0.9 < CI < 1.1), or antagonistic (CI > 1.1) based on the computed CI values.

HL60-ABCG2 cells = assay: as above; format: cell-based, human
Experimental: as §3, §4

pIC50 (ABCB1): 5.43
pIC50 (CYP2C19): 4.84
inhibitory effect on CYP2B6 (in words) (CYP2B6): no appreciable inhibitory effect
pIC50 (CYP2B6; 15 min incubation, absolute IC50, read-out: CYP2B6 inhibition IC50): < 4.30
Structure (SMILES): C[C@@H]1CN(C(=O)c2ccc(NC(=O)c3cc(O[C@H](C)c4c(Cl)ccc(F)c4Cl)c(N)nn3)cc2)C[C@H](C)N1 [ensartinib, Ensartinib]
effect on the accumulation of any substrate in control cells (MDCKII-par cells): no significant effect
IC50 at 48 h [1]: 24.3 µM
combination effect (Chou-Talalay combination index) (HL60-ABCG2 cells; 10 µM ensartinib with mitoxantrone): synergistic (synergistic (CI < 0.9))
RR (reversal ratio) (HL60-ABCG2 cells; mitoxantrone, IC50 single drug / IC50 combined with 10 µM ensartinib): 18.6
